Measured values as given in US20190364896A1, “SYNERGISTIC WEED CONTROL FROM APPLICATIONS OF PYRIDINE CARBOXYLIC ACID HERBICIDES AND ALS INHIBITORS” (Dow AgroSciences LLC, priority 2014, published 2019).
Where two headings read alike, the source gives them in different places.

Legend:
Experiment in all cases: Postemergence herbicidal activity, greenhouse trial (visual injury 0-100%)
Format in all cases: in vivo
[1] = tested on: nutsedge (Cyperus esculentus, CYPES); conditions: Cyperus, post-emergence, read-out: % visual injury Obs
Description: (§1) Seeds of the desired test plant species were planted in Sun Gro MetroMix® 306 planting mixture, which typically has a pH of 6.0 to 6.8 and an organic matter content of about 30 percent, in plastic pots with a surface area of 103.2 square centimeters (cm^2). […] The plants were grown for 7-36 days (d) in a greenhouse with an approximate 14-hour (h) photoperiod which was maintained at about 23° C. during the day and 22° C. during the night. Nutrients and water were added on a regular basis and supplemental lighting was provided with overhead metal halide 1000-Watt lamps as necessary. The plants were employed for testing when they reached the second or third true leaf stage.
(§2) Weighed amounts of technical material were dissolved in a volume of 97:3 volume per volume (v/v) acetone/dimethyl sulfoxide (DMSO) to stock solutions. […] The concentrated stock solutions were diluted with an aqueous mixture of 1.5% v/v of Agri-dex crop oil concentrate to provide the appropriate application rates. Compound requirements are based upon a 12 milliliter (mL) application volume at a rate of 187 liters per hectare (L/ha). Spray solutions of the experimental compound mixtures were prepared by adding the stock solutions to the appropriate amount of dilution solution to form a 12 mL spray solution in two-way combinations. Formulated compounds were applied to the plant material with an overhead Mandel track sprayer equipped with 8002E nozzles calibrated to deliver 187 L/ha over an application area of 0.503 square meters (m^2) at a spray height of 18 inches (43 centimeters (cm)) above average plant canopy. Control plants were sprayed in the same manner with the solvent blank. Application rates for component (a) are in g ae/ha, and application rates for component (b) are in g ai/ha.
(§3) The treated plants and control plants were placed in a greenhouse as described above and watered by sub-irrigation to prevent wash-off of the test compounds. After 20-22 d, the condition of the test plants as compared with that of the control plants was determined visually and scored on a scale of 0 to 100 percent where 0 corresponds to no injury and 100 corresponds to complete kill. Colby's equation was used to determine the herbicidal effects expected from the mixtures. […]
(§4) Weighed amounts of technical or formulated material (emulsifiable concentrate (EC) or soluble concentrate (SL)) were dissolved in a volume of 97:3 volume per volume (v/v) acetone/dimethyl sulfoxide (DMSO) to stock solutions. […] The concentrated stock solutions were diluted with an aqueous mixture of 1.5% v/v of Agri-dex crop oil concentrate to provide the appropriate application rates. Compound requirements are based upon a 12 milliliter (mL) application volume at a rate of 187 liters per hectare (L/ha). Spray solutions of the experimental compound mixtures were prepared by adding the stock solutions to the appropriate amount of dilution solution to form a 12 mL spray solution in two-way combinations. Formulated compounds were applied to the plant material with an overhead Mandel track sprayer equipped with 8002E nozzles calibrated to deliver 187 L/ha over an application area of 0.503 square meters (m^2) at a spray height of 18 inches (43 centimeters (cm)) above average plant canopy. Control plants were sprayed in the same manner with the solvent blank. Application rates for component (a) are in g ae/ha, and application rates for component (b) are in g ai/ha.

[2] = tested on: ivyleaf morning-glory (Ipomoea hederacea, IPOHE); conditions: Ipomoea hederacea, post-emergence, read-out: % visual injury Obs
Description: as §1, §4
(§5) The treated plants and control plants were placed in a greenhouse as described above and watered by sub-irrigation to prevent wash-off of the test compounds. After 20-22 d, the condition of the test plants as compared with that of the control plants was determined visually and scored on a scale of 0 to 100 percent where 0 corresponds to no injury and 100 corresponds to complete kill. The condition of the test plants was compared with that of the control plants as determined visually and scored on a scale of 0 to 100 percent, where 0 corresponds to no injury and 100 corresponds to complete kill. Colby's equation was used to determine the herbicidal effects expected from the mixtures.
(§6) Compound 1 was formulated as an EC and was combined with florasulam, cloransulam, diclosulam, flumetsulam, penoxsulam, or pyroxsulam. Compound 2 was formulated as an EC and was combined with florasulam or pyroxsulam. The mixtures were applied to winter wheat (TRZAW), common rice (ORYSA), maize (ZEAMX), and the phytotoxicity of the herbicidal compositions was measured. In addition, the efficacy of the herbicidal compositions on blackgrass (Alopecurus myosuroides, ALOMY), pigweed (Amaranthus retrollexus, AMARE), wild oat (Avena fatua, AVEFA), common lambsquarters (Chenopodium album L., CHEAL), thistle (Cirsium arvense CIRAR), nutsedge (Cyperus esculentus, CYPES), barnyardgrass (Echinochloa crus-galli, ECHCG), poinsettia (Euphorbia heterophylla, EPHHL), ivyleaf morning-glory (Ipomoea hederacea, IPOHE), kochia (Kochia scoparia, KCHSC), wild buckwheat (Polygonum convolvulus, POLCO), grain sorghum (Sorghum vulgare, SORVU), chickweed (Stellaria media, STEME), wild pansy (Viola tricolor, VIOTR), was evaluated.
(§7) Weighed amounts of technical material were dissolved in a volume of 97:3 volume per volume (v/v) acetone/dimethyl sulfoxide (DMSO) to stock solutions. […] The concentrated stock solutions were diluted with an aqueous mixture of 1.5% v/v of Agri-dex crop oil concentrate to provide the appropriate application rates. Compound requirements are based upon a 12 milliliter (mL) application volume at a rate of 187 liters per hectare (L/ha). […]

[3] = tested on: barnyardgrass (Echinochloa crus-galli, ECHCG); conditions: Echinochloa crus-galli, post-emergence, 7.5 g ai/ha; read-out: % visual injury Obs
Description: as §1, §4, §5, §6, §7

[4] = tested on: thistle (Cirsium arvense, CIRAR); conditions: Cirsium arvense, post-emergence, read-out: % visual injury Obs
Description: as §1, §4, §3
(§8) Weighed amounts of technical material were dissolved in a volume of 97:3 volume per volume (v/v) acetone/dimethyl sulfoxide (DMSO) to stock solutions. […] The concentrated stock solutions were diluted with an aqueous mixture of 1.5% v/v of Agri-dex crop oil concentrate to provide the appropriate application rates. Compound requirements are based upon a 12 milliliter (mL) application volume at a rate of 187 liters per hectare (L/ha).

[5] = tested on: wild buckwheat (Polygonum convolvulus, POLCO); conditions: Fallopia convolvulus, post-emergence, read-out: % visual injury Obs
Description: as §1, §4, §3, §8

[6] = tested on: kochia (Kochia scoparia, KCHSC); conditions: Bassia scoparia, post-emergence, read-out: % visual injury Obs
Description: as §1, §4, §3, §8

[7] = tested on: poinsettia (Euphorbia heterophylla, EPHHL); conditions: Euphorbia heterophylla, post-emergence, read-out: % visual injury Obs
Description: as §1, §2, §3, §4

[8] = tested on: common lambsquarters (Chenopodium album L., CHEAL); conditions: Chenopodium album, post-emergence, read-out: % visual injury Obs
Description: as §1, §4, §5, §6, §7

[9] = tested on: grain sorghum (Sorghum vulgare, SORVU)
Description: as §1, §4, §5, §6, §7

[10] = tested on: chickweed (Stellaria media, STEME); conditions: Stellaria media, post-emergence, STEME; azimsulfuron 6.25 g ai/ha; read-out: % visual injury Obs
Description: as §1, §4, §5, §6, §7

[11] = tested on: wild pansy (Viola tricolor, VIOTR); conditions: Viola tricolor, post-emergence, read-out: % visual injury Obs
Description: as §1, §4, §5
as §6, with “Compound 1 was formulated as an EC and was combined with florasulam, cloransulam, diclosulam, flumetsulam, penoxsulam, or pyroxsulam.” left out
as §8

[12] = tested on: blackgrass (Alopecurus myosuroides, ALOMY)
Description: as §1, §4, §5, §6, §7

[13] = tested on: wild oat (Avena fatua, AVEFA)
Description: as §1, §4, §5, §6, §7

[14] = tested on: pigweed (Amaranthus retroflexus, AMARE); conditions: Amaranthus retroflexus, post-emergence, read-out: % visual injury Obs
Description: as §1, §4, §3, §8

Q: `COc1cc(OC)nc(NC(=O)NS(=O)(=O)N(C)S(C)(=O)=O)n1` [Amidosulfuron, amidosulfuron] was tested. Which pest or weed control at […] ([1]; 7.5 g ai/ha) did it give?
A: The pest or weed control at […] was 20%.

Q: And the pest or weed control at […] ([2]; 7.5 g ai/ha)?
A: Its pest or weed control at […] is 35%.

Q: And the pest or weed control at […] [3]?
A: Its pest or weed control at […] is 0%.

Q: And the pest or weed control at […] ([4]; 7.5 g ai/ha)?
A: Its pest or weed control at […] is 20%.

Q: What about the pest or weed control at […] ([5]; 7.5 g ai/ha) of the same molecule?
A: The pest or weed control at […] was 85%.

Q: And the pest or weed control at […] ([6]; 7.5 g ai/ha)?
A: The pest or weed control at […] was 10%.

Q: With `COc1cc(OC)nc(NC(=O)NS(=O)(=O)c2c(-c3nnn(C)n3)cnn2C)n1` [Azimsulfuron, azimsulfuron] as the molecule, how does the pest or weed control ([7]; EPHHL, azimsulfuron 6.25 g ai/ha) read?
A: Its pest or weed control is 10%.

Q: What about the pest or weed control ([8]; CHEAL, azimsulfuron 6.25 g ai/ha) of the same molecule?
A: The pest or weed control was 10%.

Q: And the pest or weed control ([2]; IPOHE, azimsulfuron 6.25 g ai/ha)?
A: The pest or weed control was 93%.

Q: What about the “% visual injury Obs” value ([9]; SORVU, azimsulfuron 6.25 g ai/ha) of the same molecule?
A: The value was 65%.

Q: What about the pest or weed control [10] of the same molecule?
A: Its pest or weed control is 20%.

Q: And the pest or weed control ([11]; VIOTR, azimsulfuron 6.25 g ai/ha)?
A: Its pest or weed control is 60%.

Q: What about the pest or weed control ([6]; KCHSC, azimsulfuron 6.25 g ai/ha) of the same molecule?
A: Its pest or weed control is 0%.

Q: What does the source list for `Nc1c(F)c(-c2ccc3cc[nH]c3c2F)nc(C(=O)OCc2ccccc2)c1Cl` [Compound 2]?
A: pest or weed control at 5 g/ha ([7]; 5 g ae/ha): 35%; pest or weed control at 10 g/ha ([7]; 10 g ae/ha): 75%; pest or weed control at 5 g/ha ([1]; 5 g ae/ha): 5%; pest or weed control at 10 g/ha ([1]; 10 g ae/ha): 10%; % visual injury Obs ([12]; 5 g ae/ha): 0%; % visual injury Obs ([12]; 10 g ae/ha): 0%; pest or weed control at 5 g/ha ([8]; 5 g ae/ha): 88%; pest or weed control at 10 g/ha ([8]; 10 g ae/ha): 99%; pest or weed control at 5 g/ha ([2]; 5 g ae/ha): 10%; pest or weed control at 10 g/ha ([2]; 10 g ae/ha): 20%; % visual injury Obs ([13]; 5 g ae/ha): 0%; % visual injury Obs ([13]; 10 g ae/ha): 0%; pest or weed control at 5 g/ha ([14]; 5 g ae/ha): 88%; pest or weed control at 10 g/ha ([14]; 10 g ae/ha): 100%

Q: How did the pest or weed control ([7]; 4.375 g ai/ha) turn out when `Cc1ccn2nc(S(=O)(=O)Nc3c(F)cccc3F)nc2n1` [Flumetsulam, flumetsulam] was run?
A: Its pest or weed control is 30%.

Q: And the pest or weed control ([1]; 4.375 g ai/ha)?
A: The pest or weed control was 10%.

Q: What about the “% visual injury Obs” value ([9]; 4.375 g ai/ha) of the same molecule?
A: The value was 60%.

Q: What about the pest or weed control ([11]; 4.375 g ai/ha) of the same molecule?
A: The pest or weed control was 70%.

Q: And the pest or weed control ([4]; 4.375 g ai/ha)?
A: Its pest or weed control is 10%.

Q: And the pest or weed control ([6]; 4.375 g ai/ha)?
A: Its pest or weed control is 60%.

Q: Which results are given for `COc1cc(OC)nc(NC(=O)NS(=O)(=O)c2cc(NC=O)ccc2C(=O)N(C)C)n1` [Foramsulfuron, foramsulfuron]?
A: % visual injury Obs ([12]; ALOMY, foramsulfuron 10 g ai/ha): 93%; pest or weed control at 10 g/ha ([14]; AMARE, foramsulfuron 10 g ai/ha): 85%

Q: How did the “% visual injury Obs” value ([9]; SORVU, mesosulfuron 3 g ai/ha) turn out when `COC(=O)c1ccc(CNS(C)(=O)=O)cc1S(=O)(=O)NC(=O)Nc1nc(OC)cc(OC)n1` [Mesosulfuron, mesosulfuron] was run?
A: Its value is 97%.

Q: What about the pest or weed control at 3 g/ha ([5]; POLCO, mesosulfuron 3 g ai/ha) of the same molecule?
A: Its pest or weed control at 3 g/ha is 20%.

Q: What about the pest or weed control at 3 g/ha ([6]; KCHSC, mesosulfuron 3 g ai/ha) of the same molecule?
A: The pest or weed control at 3 g/ha was 10%.

Q: Which pest or weed control at 5 g/ha ([7]; 5 g ai/ha) does the source give for `COc1cnc(OC)n2nc(NS(=O)(=O)c3c(OCC(F)F)cccc3C(F)(F)F)nc12` [Penoxsulam, penoxsulam] here?
A: Its pest or weed control at 5 g/ha is 60%.

Q: What about the pest or weed control at 5 g/ha ([1]; 5 g ai/ha) of the same molecule?
A: Its pest or weed control at 5 g/ha is 70%.

Q: What about the pest or weed control at 5 g/ha ([2]; 5 g ai/ha) of the same molecule?
A: The pest or weed control at 5 g/ha was 90%.

Q: And the “% visual injury Obs” value ([9]; 5 g ai/ha)?
A: Its value is 0%.

Q: And the pest or weed control at 5 g/ha ([6]; 5 g ai/ha)?
A: Its pest or weed control at 5 g/ha is 10%.
